Data from patent US10508111B2, “6-[5-amino-6-(2-ethoxyethoxy)-imidazo[4,5-B]pyridin-3-yl]-nicotinonitrile derivatives and their use as IRAK inhibitors” (GALAPAGOS NV, priority 2015, dated 2019).

Assays:
Assay type in all cases: biochemical
human IRAK-4 = biological target: T1, human IRAK-4 (Homo sapiens, UniProt Q9NWZ3); test: IC50 determination for human IRAK-4, radioactive filter plate assay; conditions: RIP140 substrate, 1 μM ATP + [γ-33P]ATP, 30° C., 45 min; read-out: hIRAK-4 IC50
T1 construct: purchased Carna Biosciences 09-145
T1 sequence (Q9NWZ3 1-460): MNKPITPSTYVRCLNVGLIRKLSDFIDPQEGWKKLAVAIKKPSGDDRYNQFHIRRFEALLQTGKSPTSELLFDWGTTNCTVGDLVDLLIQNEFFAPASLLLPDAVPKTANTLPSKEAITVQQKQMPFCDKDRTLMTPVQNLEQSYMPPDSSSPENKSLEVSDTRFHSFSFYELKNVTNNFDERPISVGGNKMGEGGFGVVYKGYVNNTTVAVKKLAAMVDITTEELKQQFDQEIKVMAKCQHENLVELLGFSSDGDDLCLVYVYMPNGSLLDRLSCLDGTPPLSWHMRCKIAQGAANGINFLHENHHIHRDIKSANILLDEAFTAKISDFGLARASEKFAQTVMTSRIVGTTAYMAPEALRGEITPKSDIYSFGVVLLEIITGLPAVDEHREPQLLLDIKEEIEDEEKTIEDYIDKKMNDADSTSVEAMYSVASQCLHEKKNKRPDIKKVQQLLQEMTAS
Description: The IC50 value for IRAK-4 is determined in a radioactive filter plate assay. The principle of the assay consists in the measurement of incorporated ^33P into the RIP140 substrate upon phosphorylation by the enzyme IRAK-4 using [γ-^33P]ATP and ATP. Unincorporated ^33P is removed by loading the samples on a filter plate (using a harvester, PerkinElmer) and 6 subsequent washing steps. Incorporated ^33P in RIP140 is measured by a scintillation counter (Topcount, PerkinElmer) after addition of MicroScint™-20 (PerkinElmer, 6013621) to the filter plates.
5 μL of a water dilution series of test compound (starting from 20 μM or 6.6 μM highest concentration), from a 100% DMSO stock solution, 1/5 dilution, is added to the wells (final DMSO concentration of 1% in reaction assay). IRAK-4 (Carna Biosciences, 09-145) and RIP140 (SEQ ID1, cf. Table VII) are used at a final concentration of 10 ng/mL and 4 μM, respectively. The enzyme and substrate are diluted in 25 mM Tris pH 7.5, 0.025% Triton X-100, 5 mM MnCl2, and 2 mM DTT to a total volume of 11 μL. The reaction is started by addition of 9 μL of 1 μM ATP (Sigma, A6419-5G)+0.25 μCi [γ-^33P]ATP (PerkinElmer, NEG602K001MC), diluted in the same buffer as enzyme and substrate. The mixture is incubated at 30° C. for 45 min. The reaction is terminated by adding 25 μL of 150 mM phosphoric acid (VWR, 1.00573.1000). Samples are transferred to filter plates and incorporated radioactivity is measured using a scintillation counter.
(§1) 10 μM staurosporine (1% DMSO) is used as positive control (100% inhibition); vehicle (water+1% DMSO) as negative control (0% inhibition).

ABL = biological target: T2, ABL (Homo sapiens, UniProt P00519); test: Kinase selectivity profiling (focused panel), radioactive filter plate assay: ABL; conditions: PolyGT substrate, 0.5 μM ATP, 60 min
T2 construct: purchased Life Technologies P3049
Description: (§2) The purpose of this assay is to determine the activity and selectivity of a compound of the invention on a selected range of human kinases which may result in undesirable side-effects when inhibited (Dy & Adjei 2013; Force & Kolaja 2011).
(§3) The IC50 value for off-target kinases is determined in radioactive filter plate assays. The principle of the assays consists in the measurement of incorporated ^33P into a peptide substrate upon phosphorylation by the kinase enzyme using [γ-^33P]ATP and ATP. Unincorporated ^33P is removed by loading the samples on a filter plate (using a harvester, PerkinElmer) and 6 subsequent washing steps. Incorporated ^33P in the peptide substrate is measured by a scintillation counter (Topcount, PerkinElmer) after addition of MicroScint™-20 (PerkinElmer, 6013621) to the filter plates.
(§4) 5 μL of a water dilution series of test compound (starting from 20 μM or 6.6 μM highest concentration), from a 100% DMSO stock solution, 1/5 dilution, is added to the wells (final DMSO concentration of 1% in reaction assay). Enzyme and peptide substrate are used at optimized concentrations (cf. Table VI). The enzyme and substrate are diluted in assay buffer to a total volume of 11 μL. The reaction is started by addition of 9 μL of ATP+[γ-^33P]ATP, diluted in the same buffer as enzyme and substrate. The mixture is incubated at 30° C. The reaction is terminated by adding 25 μL of 150 mM phosphoric acid. Samples are transferred to filter plates and incorporated radioactivity is measured using a scintillation counter.
(§5) The incubation time, assay buffer composition, and concentrations of ATP, enzyme and substrate are reported in Table VI for example kinase off-target assays.
as §1

CDK2 = biological target: T3, CDK2 (Homo sapiens, UniProt P24941); test: Kinase selectivity profiling (focused panel), radioactive filter plate assay: CDK2; conditions: Histone H1-derived peptide, 0.1 μM ATP, 60 min
T3 construct: purchased Carna Biosciences 04-103
Description: as §2, §3, §4, §5, §1

CDK9 = biological target: T4, CDK9 (Homo sapiens, UniProt P50750); test: Kinase selectivity profiling (focused panel), radioactive filter plate assay: CDK9; conditions: PDKtide, 0.25 μM ATP, 60 min
T4 construct: purchased Millipore 14-685
Description: as §2, §3, §4, §5, §1

GSK3b = biological target: T5, GSK3b (Homo sapiens, UniProt P49841); test: Kinase selectivity profiling (focused panel), radioactive filter plate assay: GSK3b; conditions: Phospho glycogen synthase peptide2, 1.5 μM ATP, 90 min
T5 construct: purchased Carna Biosciences 04-141
Description: as §2, §3, §4, §5, §1

c-SRC = biological target: T6, c-SRC (Homo sapiens, UniProt P12931); test: Kinase selectivity profiling (focused panel), radioactive filter plate assay: c-SRC; conditions: PolyGT substrate, 0.25 μM ATP, 60 min
T6 construct: purchased Carna Biosciences 08-173
Description: as §2, §3, §4, §5, §1

T2 sequence (P00519 whole entry): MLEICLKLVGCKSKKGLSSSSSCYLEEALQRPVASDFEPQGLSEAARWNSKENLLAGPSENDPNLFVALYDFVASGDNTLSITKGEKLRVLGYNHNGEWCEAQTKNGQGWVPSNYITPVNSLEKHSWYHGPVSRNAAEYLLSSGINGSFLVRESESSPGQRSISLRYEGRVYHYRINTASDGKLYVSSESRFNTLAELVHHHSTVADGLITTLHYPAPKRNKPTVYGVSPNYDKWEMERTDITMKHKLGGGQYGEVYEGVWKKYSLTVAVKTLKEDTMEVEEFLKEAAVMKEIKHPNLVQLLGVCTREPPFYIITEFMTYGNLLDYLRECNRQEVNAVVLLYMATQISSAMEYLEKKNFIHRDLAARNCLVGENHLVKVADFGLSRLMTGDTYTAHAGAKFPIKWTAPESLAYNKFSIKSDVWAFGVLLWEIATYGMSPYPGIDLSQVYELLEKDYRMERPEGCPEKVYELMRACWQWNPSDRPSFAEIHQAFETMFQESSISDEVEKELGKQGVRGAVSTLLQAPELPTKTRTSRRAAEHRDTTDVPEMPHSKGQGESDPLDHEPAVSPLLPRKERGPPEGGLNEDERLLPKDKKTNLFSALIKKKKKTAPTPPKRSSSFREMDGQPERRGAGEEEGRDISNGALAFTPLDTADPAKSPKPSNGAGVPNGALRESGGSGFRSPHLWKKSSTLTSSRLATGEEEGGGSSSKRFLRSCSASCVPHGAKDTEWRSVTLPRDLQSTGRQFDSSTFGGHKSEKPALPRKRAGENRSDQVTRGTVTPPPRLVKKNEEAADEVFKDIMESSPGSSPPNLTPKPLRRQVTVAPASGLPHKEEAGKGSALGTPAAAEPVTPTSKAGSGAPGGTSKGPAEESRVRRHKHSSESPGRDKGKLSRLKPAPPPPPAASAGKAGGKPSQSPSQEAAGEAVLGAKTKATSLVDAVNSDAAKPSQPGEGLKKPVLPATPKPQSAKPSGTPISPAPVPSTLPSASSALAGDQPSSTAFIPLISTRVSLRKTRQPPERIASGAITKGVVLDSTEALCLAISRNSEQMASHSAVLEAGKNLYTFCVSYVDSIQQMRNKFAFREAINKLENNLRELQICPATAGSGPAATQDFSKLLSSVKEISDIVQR
T6 sequence (P12931 whole entry): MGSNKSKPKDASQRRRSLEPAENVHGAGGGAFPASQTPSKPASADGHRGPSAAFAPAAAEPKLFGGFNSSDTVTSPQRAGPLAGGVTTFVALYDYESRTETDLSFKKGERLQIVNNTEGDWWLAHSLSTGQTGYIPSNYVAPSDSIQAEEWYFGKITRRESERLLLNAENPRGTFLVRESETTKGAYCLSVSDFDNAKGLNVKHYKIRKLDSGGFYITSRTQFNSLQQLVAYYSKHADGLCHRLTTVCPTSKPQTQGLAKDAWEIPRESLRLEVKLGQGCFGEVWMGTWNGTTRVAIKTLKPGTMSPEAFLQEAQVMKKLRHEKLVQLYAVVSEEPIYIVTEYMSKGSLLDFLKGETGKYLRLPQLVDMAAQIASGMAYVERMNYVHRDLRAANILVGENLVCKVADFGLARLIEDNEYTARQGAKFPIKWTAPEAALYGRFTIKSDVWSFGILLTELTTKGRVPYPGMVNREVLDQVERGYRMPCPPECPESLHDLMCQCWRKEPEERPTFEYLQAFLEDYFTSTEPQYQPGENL
T5 sequence (P49841 whole entry): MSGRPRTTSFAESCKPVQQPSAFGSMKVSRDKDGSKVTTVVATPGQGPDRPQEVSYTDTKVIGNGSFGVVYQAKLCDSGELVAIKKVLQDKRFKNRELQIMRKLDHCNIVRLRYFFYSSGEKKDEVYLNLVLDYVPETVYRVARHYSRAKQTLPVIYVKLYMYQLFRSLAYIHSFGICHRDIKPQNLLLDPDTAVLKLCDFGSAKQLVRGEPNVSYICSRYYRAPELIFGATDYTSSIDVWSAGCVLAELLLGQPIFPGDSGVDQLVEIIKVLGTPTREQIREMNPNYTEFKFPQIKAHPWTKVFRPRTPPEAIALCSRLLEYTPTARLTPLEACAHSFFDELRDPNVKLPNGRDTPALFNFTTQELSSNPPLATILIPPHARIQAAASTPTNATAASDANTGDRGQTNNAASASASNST
T4 sequence (P50750 whole entry): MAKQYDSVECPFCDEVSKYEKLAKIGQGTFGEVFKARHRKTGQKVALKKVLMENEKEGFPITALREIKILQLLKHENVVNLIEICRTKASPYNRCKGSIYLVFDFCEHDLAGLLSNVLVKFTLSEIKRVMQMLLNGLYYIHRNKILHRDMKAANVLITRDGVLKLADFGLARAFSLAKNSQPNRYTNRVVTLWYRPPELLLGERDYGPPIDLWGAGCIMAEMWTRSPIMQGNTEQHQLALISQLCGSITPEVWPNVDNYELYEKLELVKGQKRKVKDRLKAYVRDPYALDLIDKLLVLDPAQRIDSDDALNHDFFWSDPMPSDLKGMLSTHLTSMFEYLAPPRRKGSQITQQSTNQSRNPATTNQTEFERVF
T4 sequence (O60563 whole entry partner): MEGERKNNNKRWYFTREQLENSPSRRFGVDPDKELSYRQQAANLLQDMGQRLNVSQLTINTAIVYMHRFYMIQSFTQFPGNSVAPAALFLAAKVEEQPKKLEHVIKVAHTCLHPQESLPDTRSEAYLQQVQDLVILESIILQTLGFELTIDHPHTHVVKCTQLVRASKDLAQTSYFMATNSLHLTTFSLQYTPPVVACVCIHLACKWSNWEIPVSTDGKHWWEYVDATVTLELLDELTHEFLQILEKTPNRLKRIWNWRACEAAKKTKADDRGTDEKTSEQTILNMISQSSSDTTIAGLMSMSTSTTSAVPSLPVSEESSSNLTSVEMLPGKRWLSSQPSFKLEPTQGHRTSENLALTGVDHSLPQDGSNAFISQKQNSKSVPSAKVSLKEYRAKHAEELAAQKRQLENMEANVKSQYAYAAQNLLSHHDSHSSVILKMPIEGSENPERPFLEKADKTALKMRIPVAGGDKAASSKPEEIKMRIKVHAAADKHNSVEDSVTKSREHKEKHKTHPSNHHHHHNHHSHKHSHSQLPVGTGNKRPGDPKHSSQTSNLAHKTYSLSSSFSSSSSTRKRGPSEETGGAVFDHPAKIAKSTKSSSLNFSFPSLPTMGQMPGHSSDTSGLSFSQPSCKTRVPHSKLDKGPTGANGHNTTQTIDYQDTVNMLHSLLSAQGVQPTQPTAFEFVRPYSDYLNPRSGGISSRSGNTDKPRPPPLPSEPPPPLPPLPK

Row | Structure (SMILES) | IC50 (human IRAK-4) [nM] | IC50 (ABL) [nM] | IC50 (CDK2) [nM] | IC50 (CDK9) [nM] | IC50 (GSK3b) [nM] | IC50 (c-SRC) [nM]
1 | COCCOCCOc1cc2ncn(-c3ccc(C#N)cn3)c2nc1N(C)[C@H]1CC[C@@](C)(O)CC1 [Compound 13, 6-[5-[((cis-1,4)-4-hydroxy-4-methyl-cyclohexyl)-methyl-amino]-6-[2-(2-methoxyethoxy)ethoxy]imidazo[4,5-b]pyridin-3-yl]pyridine-3-carbonitrile] | 39.1 |  |  |  |  | 
2 | N#Cc1ccc(-n2cnc3cc(OCCOCCOS(=O)(=O)O)c(NC4CCOCC4)nc32)nc1 [Compound 8, sulfuric acid mono-(2-{2-[3-(5-cyano-pyridin-2-yl)-5-(tetrahydro-pyran-4-ylamino)-3H-imidazo[4,5-b]pyridin-6-yloxy]-ethoxy}-ethyl) ester] | 51.4 |  |  |  |  | 
3 | N#Cc1ccc(-n2cnc3cc(OCCOCCO)c(NC4CCC(F)(F)CC4)nc32)nc1 [Compound 7, 6-{5-(4,4-difluoro-cyclohexylamino)-6-[2-(2-hydroxy-ethoxy)-ethoxy]-imidazo[4,5-b]pyridin-3-yl}-nicotinonitrile] | 14.3 |  |  |  |  | 
4 | CN(c1nc2c(cc1OCCOCCO)ncn2-c1ccc(C#N)cn1)[C@H]1CC[C@@](C)(O)CC1 [Compound 3, 6-{6-[2-(2-hydroxy-ethoxy)-ethoxy]-5-[((cis-1,4)-4-hydroxy-4-methyl-cyclohexyl)-methyl-amino]-imidazo[4,5-b]pyridin-3-yl}-nicotinonitrile] | 21.7 |  |  |  |  | 
5 | N#Cc1ccc(-n2cnc3cc(OCCOCCO)c(NC4CCS(=O)(=O)CC4)nc32)nc1 [Compound 2, 6-{5-(1,1-dioxo-tetrahydro-2H-thiopyran-4-ylamino)-6-[2-(2-hydroxy-ethoxy)-ethoxy]-imidazo[4,5-b]pyridin-3-yl}-nicotinonitrile] | 25.4 |  | > 1330 | 712 | > 1330 | > 1330
6 | COCCOCCOc1cc2ncn(-c3ccc(C#N)cn3)c2nc1NC1CCOCC1 [Compound 5, 6-[6-[2-(2-methoxy-ethoxy)-ethoxy]-5-(tetrahydro-pyran-4-ylamino)-imidazo[4,5-b]pyridin-3-yl]-nicotinonitrile] | 13.8 | 2690 | > 4000 | 2290 | > 4000 | > 2940
7 | CC(C)[C@H](N)C(=O)OCCOCCOc1cc2ncn(-c3ccc(C#N)cn3)c2nc1NC1CCOCC1 [Compound 9, (S)-2-amino-3-methyl-butyric acid 2-{2-[3-(5-cyano-pyridin-2-yl)-5-(tetrahydro-pyran-4-ylamino)-3H-imidazo[4,5-b]pyridin-6-yloxy]-ethoxy}-ethyl ester] | 13.5 | 633 | > 4000 | 639 | 3250 | 286
8 | N#Cc1ccc(-n2cnc3cc(OCCOCCO)c(N[C@@H]4COCC[C@@H]4O)nc32)nc1 (relative stereo) [Compound 11, 6-[6-[2-(2-hydroxyethoxy)ethoxy]-5-[[(cis-3,4)-4-hydroxytetrahydropyran-3-yl]amino]imidazo[4,5-b]pyridin-3-yl]pyridine-3-carbonitrile] | 14.3 |  | > 1330 | 834 | > 1330 | > 1330

Next, values leading:

Row | IC50 (human IRAK-4) [nM] | IC50 (ABL) [nM] | IC50 (CDK2) [nM] | IC50 (CDK9) [nM] | IC50 (GSK3b) [nM] | IC50 (c-SRC) [nM] | Structure (SMILES)
9 | 4.85 | 656 | 2670 | 1030 | > 4000 | 754 | N#Cc1ccc(-n2cnc3cc(OCCOCCO)c(NC4CCCC(O)C4)nc32)nc1 (centres unmarked) [Compound 6, 6-{5-(3-hydroxy-cyclohexylamino)-6-[2-(2-hydroxy-ethoxy)-ethoxy]-imidazo[4,5-b]pyridin-3-yl}-nicotinonitrile]
10 | 3.45 |  | 1380 | 1390 | 2240 | 319 | COCCOCCOc1cc2ncn(-c3ccc(C#N)cn3)c2nc1N[C@H]1CC[C@@](C)(O)CC1 [Compound 14, 6-[5-[((cis-1,4)-4-hydroxy-4-methylcyclohexyl)amino]-6-[2-(2-methoxyethoxy)ethoxy]imidazo[4,5-b]pyridin-3-yl]pyridine-3-carbonitrile]
11 | 523 |  |  |  |  |  | COCCOCCOc1cc2ncn(-c3ccc(C#N)cn3)c2nc1N(C)C1CCOCC1 [Compound 4, 6-{6-[2-(2-methoxy-ethoxy)-ethoxy]-5-[methyl-(tetrahydro-pyran-4-yl)-amino]-imidazo[4,5-b]pyridin-3-yl}-nicotinonitrile]
